Read-outs that look alike come from different tables or passages of the source.
Columns and labels:
[1] = molecular target: native KA receptors; test: Binding affinity at native KA receptors, [3H]-KA, rat cortical synaptosomes; conditions: native iGluRs; for IC50 KA: mean of at least three experiments
[2] = molecular target: recombinant rat homomeric GluK1 (Rattus norvegicus, UniProt P22756); test: Binding affinity at cloned homomeric GluK1 expressed in sf9 cells, [3H]-NF608
[3] = molecular target: recombinant rat homomeric GluK2 (Rattus norvegicus, UniProt P42260); test: Binding affinity at cloned homomeric GluK2 expressed in sf9 cells, [3H]-KA
[4] = molecular target: recombinant rat homomeric GluK3 (Rattus norvegicus, UniProt P42264); test: Binding affinity at cloned homomeric GluK3 expressed in sf9 cells, [3H]-KA; conditions: for GluK1/K3 (GluK1/GluK3 Ki selectivity ratio): ratio of Ki values at cloned homomeric receptors
[5] = molecular target: human EAAT1 (Homo sapiens, UniProt P43003); test: [3H]-D-Asp uptake assay, EAAT1 stably expressed in HEK293 cells; format: cell-based
[6] = molecular target: human EAAT2 (Homo sapiens, UniProt P43004); test: [3H]-D-Asp uptake assay, EAAT2 stably expressed in HEK293 cells; format: cell-based
[7] = molecular target: T1, human EAAT3 (Homo sapiens, UniProt P43005); test: [3H]-D-Asp uptake assay, EAAT3 stably expressed in HEK293 cells; format: cell-based
T1 sequence (P43005 1-524): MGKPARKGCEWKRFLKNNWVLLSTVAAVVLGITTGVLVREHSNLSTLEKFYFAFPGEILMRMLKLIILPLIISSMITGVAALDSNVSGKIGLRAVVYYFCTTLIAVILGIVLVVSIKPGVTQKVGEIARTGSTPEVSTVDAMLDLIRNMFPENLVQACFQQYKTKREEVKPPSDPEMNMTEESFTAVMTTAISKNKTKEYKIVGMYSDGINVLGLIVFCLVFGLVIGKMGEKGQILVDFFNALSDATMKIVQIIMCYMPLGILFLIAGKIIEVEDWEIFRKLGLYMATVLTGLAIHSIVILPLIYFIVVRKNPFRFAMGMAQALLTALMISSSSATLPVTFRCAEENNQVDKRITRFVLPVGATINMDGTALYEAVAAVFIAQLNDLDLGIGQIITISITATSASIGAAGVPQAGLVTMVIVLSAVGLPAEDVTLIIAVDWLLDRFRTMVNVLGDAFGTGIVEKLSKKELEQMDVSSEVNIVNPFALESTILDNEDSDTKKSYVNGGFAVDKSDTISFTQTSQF

[8] = molecular target: native NMDA receptors; format: binding; conditions: native iGluRs, rat synaptosomes
[9] = molecular target: native AMPA receptors; test: Binding affinity at native AMPA receptors, [3H]-AMPA, rat cortical synaptosomes; conditions: native iGluRs
[10] = molecular target: native AMPA receptors; conditions: read-out: IC50 AMPA, cited from earlier work
[11] = molecular target: native KA receptors; conditions: cited from earlier work
[12] = molecular target: native NMDA receptors; conditions: read-out: Ki NMDA, cited from earlier work
[13] = Ki GluK3, cloned homomeric receptor, mean ± SEM, at least three experiments
[14] = IC50 EAAT1, HEK293 cells, [3H]-D-Asp uptake

Chain of recombinant rat homomeric GluK1 (P22756 31-949): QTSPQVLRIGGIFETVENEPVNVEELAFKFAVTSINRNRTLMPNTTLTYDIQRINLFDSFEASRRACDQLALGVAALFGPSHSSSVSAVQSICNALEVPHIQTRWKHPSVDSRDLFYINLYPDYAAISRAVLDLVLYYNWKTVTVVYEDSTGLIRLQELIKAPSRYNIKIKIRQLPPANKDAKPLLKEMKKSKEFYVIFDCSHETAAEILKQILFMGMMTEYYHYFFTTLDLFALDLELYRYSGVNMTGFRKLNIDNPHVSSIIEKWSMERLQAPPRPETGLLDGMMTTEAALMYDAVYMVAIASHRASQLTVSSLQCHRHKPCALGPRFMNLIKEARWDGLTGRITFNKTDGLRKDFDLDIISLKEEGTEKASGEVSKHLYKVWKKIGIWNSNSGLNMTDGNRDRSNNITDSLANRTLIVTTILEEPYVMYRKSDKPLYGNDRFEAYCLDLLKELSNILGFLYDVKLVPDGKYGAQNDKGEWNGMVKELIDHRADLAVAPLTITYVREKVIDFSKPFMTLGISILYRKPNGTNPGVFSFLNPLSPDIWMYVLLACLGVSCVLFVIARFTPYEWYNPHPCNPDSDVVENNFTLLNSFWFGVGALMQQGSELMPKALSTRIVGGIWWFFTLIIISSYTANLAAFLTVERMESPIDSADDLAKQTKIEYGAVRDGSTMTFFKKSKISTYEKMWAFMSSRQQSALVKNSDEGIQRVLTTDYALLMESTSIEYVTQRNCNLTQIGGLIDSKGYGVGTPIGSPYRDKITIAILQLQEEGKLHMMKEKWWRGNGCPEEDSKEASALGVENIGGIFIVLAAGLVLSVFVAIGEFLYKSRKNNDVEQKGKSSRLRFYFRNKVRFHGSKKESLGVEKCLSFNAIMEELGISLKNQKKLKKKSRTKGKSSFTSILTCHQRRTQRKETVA
Chain of human EAAT1 (P43003 whole entry): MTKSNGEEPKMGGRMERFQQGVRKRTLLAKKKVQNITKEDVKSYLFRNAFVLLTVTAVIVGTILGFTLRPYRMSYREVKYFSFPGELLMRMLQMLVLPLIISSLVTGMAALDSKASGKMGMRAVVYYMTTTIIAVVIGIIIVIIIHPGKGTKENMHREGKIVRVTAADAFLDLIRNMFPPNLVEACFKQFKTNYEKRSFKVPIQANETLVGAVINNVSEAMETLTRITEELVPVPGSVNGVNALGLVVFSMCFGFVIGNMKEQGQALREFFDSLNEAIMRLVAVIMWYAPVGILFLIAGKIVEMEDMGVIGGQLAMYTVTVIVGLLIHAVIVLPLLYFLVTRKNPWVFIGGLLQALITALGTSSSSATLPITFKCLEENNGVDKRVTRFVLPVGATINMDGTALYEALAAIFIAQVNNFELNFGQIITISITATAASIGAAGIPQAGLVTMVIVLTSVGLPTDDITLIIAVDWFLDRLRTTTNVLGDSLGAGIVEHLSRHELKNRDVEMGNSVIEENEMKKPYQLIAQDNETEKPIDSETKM
Chain of recombinant rat homomeric GluK3 (P42264 32-919): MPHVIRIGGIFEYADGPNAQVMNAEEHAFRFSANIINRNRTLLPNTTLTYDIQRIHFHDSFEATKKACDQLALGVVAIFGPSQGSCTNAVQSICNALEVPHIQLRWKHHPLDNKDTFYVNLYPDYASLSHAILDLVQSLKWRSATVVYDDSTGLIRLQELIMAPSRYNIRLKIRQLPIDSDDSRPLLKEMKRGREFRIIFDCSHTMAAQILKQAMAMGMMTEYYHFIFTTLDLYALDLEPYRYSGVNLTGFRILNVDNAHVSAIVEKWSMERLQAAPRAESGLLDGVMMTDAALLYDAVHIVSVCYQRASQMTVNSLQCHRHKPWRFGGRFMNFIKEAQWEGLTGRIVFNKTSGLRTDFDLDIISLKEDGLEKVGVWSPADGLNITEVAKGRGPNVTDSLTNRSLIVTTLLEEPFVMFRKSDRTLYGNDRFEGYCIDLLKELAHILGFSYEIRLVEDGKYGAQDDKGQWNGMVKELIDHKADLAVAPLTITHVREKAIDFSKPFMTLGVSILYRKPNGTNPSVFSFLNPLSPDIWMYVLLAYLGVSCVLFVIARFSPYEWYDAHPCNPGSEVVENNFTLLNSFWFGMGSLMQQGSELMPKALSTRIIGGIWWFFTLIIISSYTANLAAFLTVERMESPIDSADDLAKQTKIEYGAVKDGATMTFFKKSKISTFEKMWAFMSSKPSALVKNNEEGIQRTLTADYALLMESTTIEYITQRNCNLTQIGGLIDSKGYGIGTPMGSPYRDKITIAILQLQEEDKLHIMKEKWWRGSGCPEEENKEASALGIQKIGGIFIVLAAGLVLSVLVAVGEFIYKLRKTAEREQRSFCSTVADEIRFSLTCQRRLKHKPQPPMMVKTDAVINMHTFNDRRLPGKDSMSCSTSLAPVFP
Chain of recombinant rat homomeric GluK2 (P42260 32-908): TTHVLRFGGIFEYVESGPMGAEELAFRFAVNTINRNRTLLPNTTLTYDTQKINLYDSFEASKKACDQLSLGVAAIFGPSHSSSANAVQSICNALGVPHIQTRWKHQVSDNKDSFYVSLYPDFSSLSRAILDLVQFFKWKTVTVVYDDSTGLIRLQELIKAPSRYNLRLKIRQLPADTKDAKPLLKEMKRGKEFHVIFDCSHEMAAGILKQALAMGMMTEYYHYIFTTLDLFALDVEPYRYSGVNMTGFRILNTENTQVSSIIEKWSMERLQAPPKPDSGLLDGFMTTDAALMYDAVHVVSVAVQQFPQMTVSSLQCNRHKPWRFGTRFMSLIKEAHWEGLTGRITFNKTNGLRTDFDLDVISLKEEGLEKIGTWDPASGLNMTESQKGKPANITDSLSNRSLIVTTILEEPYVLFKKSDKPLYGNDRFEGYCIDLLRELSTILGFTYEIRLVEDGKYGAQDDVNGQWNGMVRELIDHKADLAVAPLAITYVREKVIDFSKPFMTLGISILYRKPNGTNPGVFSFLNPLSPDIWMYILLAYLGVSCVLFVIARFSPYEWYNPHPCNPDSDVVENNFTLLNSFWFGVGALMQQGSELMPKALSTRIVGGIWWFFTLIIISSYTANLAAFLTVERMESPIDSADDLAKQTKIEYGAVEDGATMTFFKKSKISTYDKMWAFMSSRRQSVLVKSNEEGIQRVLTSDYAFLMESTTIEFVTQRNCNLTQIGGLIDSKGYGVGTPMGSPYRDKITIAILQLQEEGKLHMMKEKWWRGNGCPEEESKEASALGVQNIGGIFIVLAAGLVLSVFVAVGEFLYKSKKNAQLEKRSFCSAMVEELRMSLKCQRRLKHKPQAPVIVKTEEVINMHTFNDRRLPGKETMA
Chain of human EAAT2 (P43004 whole entry): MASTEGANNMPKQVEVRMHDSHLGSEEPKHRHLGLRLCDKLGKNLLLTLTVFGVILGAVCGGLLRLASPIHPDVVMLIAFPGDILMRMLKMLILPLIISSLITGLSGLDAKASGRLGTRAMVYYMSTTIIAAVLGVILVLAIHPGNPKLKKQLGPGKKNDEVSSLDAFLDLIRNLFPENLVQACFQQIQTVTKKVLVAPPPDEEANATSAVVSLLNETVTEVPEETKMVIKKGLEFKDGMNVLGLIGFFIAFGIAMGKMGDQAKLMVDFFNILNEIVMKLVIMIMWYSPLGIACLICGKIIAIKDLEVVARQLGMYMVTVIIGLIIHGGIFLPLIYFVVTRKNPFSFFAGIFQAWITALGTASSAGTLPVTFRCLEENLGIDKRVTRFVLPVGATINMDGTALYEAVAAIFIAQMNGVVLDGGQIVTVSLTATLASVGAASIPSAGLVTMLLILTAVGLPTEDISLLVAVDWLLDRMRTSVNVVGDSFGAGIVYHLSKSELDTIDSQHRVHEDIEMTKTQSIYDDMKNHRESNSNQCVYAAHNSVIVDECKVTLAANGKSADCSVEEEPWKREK

Structure (SMILES)	IC50 KA [1] [µM]	Ki [2] [µM]	Ki ([3]; Ki GluK2) [µM]	IC50 ([5]; IC50 EAAT1) [µM]	IC50 [6] [µM]	IC50 [7] [µM]	pKi NMDA (mean ± SEM, in brackets) [8]	Ki [4, 13] [µM]	GluK1/K3 (GluK1/GluK3 Ki selectivity ratio) [4]	other results
Cl.O=C(O)[C@H]1NCC[C@@H]1[C@H](C(=O)O)c1ccccc1 [3d-s2, (2S,3R)-3-((S)-Carboxy(phenyl)methyl)pyrrolidine-2-carboxylic Acid Hydrochloride]	>100	> 100	> 100	> 300	> 300	> 300	–	–	–	Ki ([4]; Ki GluK3): > 100 µM
Cl.O=C(O)C(Cc1c[nH]nn1)[C@@H]1CCN[C@H]1C(=O)O (stereo partly drawn) [3p-d2, trans-3-(1-Carboxy-2-(1H-1,2,3-triazol-4-yl)ethyl)pyrrolidine-2-carboxylic Acid Hydrochloride]	58	–	43 ± 5.2	–	–	–	4.30 ± 0.03	2.7 ± 0.32	–	pIC50 KA (mean ± SEM, in brackets) [1]: 4.24 ± 0.01
CC[C@H](C(=O)O)[C@H]1CCN[C@@H]1C(=O)O.Cl [3c-s1, (2S,3R)-3-((S)-1-Carboxypropyl)pyrrolidine-2-carboxylic Acid Hydrochloride]	>100	18 ± 3.8	–	–	~30	~50	4.88 ± 0.02	–	2	Ki [3]: > 100 µM; Ki [4]: 11 ± 2.4 µM; IC50 [5]: ~100 µM
Cl.Cl.NC(C(=O)O)[C@@H]1CCN[C@H]1C(=O)O (relative stereo) [3k, trans-3-(Amino(carboxy)methyl)pyrrolidine-2-carboxylic Acid Dihydrochloride]	>100	> 100	–	–	> 300	> 300	5.06 ± 0.02	–	>3	pIC50 AMPA (mean ± SEM, in brackets) [9]: 4.51 ± 0.03; Ki [3]: > 100 µM; Ki [4]: 33 ± 2.4 µM; IC50 [5]: > 300 µM
Cl.O=C(O)C(Cc1c[nH]nn1)[C@@H]1CCN[C@H]1C(=O)O (stereo partly drawn) [3p-d1, trans-3-(1-Carboxy-2-(1H-1,2,3-triazol-4-yl)ethyl)pyrrolidine-2-carboxylic Acid Hydrochloride]	>100	~100	> 100	> 300	> 300	> 300	–	6.6 ± 0.09	–	–
Cl.O=C(O)CCC(C(=O)O)[C@@H]1CCN[C@H]1C(=O)O (relative stereo) [3m, trans-2-(2-Carboxypyrrolidin-3-yl)pentanedioic Acid Hydrochloride]	>100	> 100	> 100	> 300	> 300	> 300	4.28 ± 0.01	> 100	–	–
Cl.O=C(O)C(CCCO)[C@@H]1CCN[C@H]1C(=O)O (relative stereo) [3o, trans-3-(1-Carboxy-4-hydroxybutyl)pyrrolidine-2-carboxylic Acid Hydrochloride]	>100	> 100	> 100	> 300	> 300	> 300	–	> 100	–	–
CC[C@@H](C(=O)O)[C@H]1CCN[C@@H]1C(=O)O.Cl [3c-s2, (2S,3R)-3-((R)-1-Carboxypropyl)pyrrolidine-2-carboxylic Acid Hydrochloride]	>100	41 ± 14	–	–	> 300	> 300	–	–	7	Ki [3]: 70 ± 14 µM; Ki [4]: 6.3 ± 1.3 µM; IC50 [5]: > 300 µM
Cl.O=C(O)[C@H]1NCC[C@@H]1[C@@H](C(=O)O)c1ccccc1 [3d-s1, (2S,3R)-3-((R)-Carboxy(phenyl)methyl)pyrrolidine-2-carboxylic Acid Hydrochloride]	>100	> 100	> 100	> 300	~50	> 300	–	–	–	Ki ([4]; Ki GluK3): > 100 µM
CC(C)C(C(=O)O)[C@@H]1CCN[C@H]1C(=O)O.Cl (relative stereo) [3f, trans-3-(1-Carboxy-2-methylpropyl)pyrrolidine-2-carboxylic Acid Hydrochloride]	>100	> 100	> 100	45	15.8	35.5	–	> 100	–	IC50 ([5]; pIC50 EAAT1 (mean ± SEM, in brackets)): 45.7 µM
O=C([O-])C(CCO)[C@@H]1CCN[C@H]1C(=O)[O-].[Na+].[Na+] (relative stereo) [3n, Disodium trans-3-(1-Carboxylato-3-hydroxypropyl)pyrrolidine-2-carboxylate]	–	> 100	–	–	> 300	> 300	4.23 ± 0.06	52 ± 3	>2	Ki ([3]; Ki GluK2, cloned homomeric receptor, mean ± SEM, at least three experiments): > 100 µM; IC50 [5, 14]: > 300 µM
Cl.O=C(O)C[C@H]1CCN[C@@H]1C(=O)O [3a, (2S,3R)-3-(Carboxymethyl)pyrrolidine-2-carboxylic Acid Hydrochloride]	–	–	–	–	–	–	–	–	6	IC50 ([5]; read-out: IC50 EAAT1, HEK293 cells, [3H]-D-Asp uptake): > 300 µM; IC50 ([6]; read-out: IC50 EAAT2, HEK293 cells, [3H]-D-Asp uptake): > 300 µM; IC50 ([7]; read-out: IC50 EAAT3, HEK293 cells, [3H]-D-Asp uptake): > 300 µM; IC50 ([10]; native receptors, ref [67]): 106 µM; IC50 KA ([11]; native receptors, ref [67]): 1.6 µM; Ki ([12]; native receptors, ref [67]): 0.5 µM
Cl.O=C(O)C(Cc1c[nH]nn1)[C@@H]1CCN[C@H]1C(=O)O (mixture of isomers) [3p, trans-3-(1-Carboxy-2-(1H-1,2,3-triazol-4-yl)ethyl)pyrrolidine-2-carboxylic Acid Hydrochloride]	59	14 ± 2	55 ± 9	> 300	> 300	> 300	–	3.1 ± 0.14	5	pIC50 KA (mean ± SEM, in brackets) [1]: 4.23 ± 0.03
Cl.O=C(O)C(CCc1ccccc1)[C@@H]1CCN[C@H]1C(=O)O (relative stereo) [3h, trans-3-(1-Carboxy-3-phenylpropyl)pyrrolidine-2-carboxylic Acid Hydrochloride]	>100	> 100	> 100	> 300	> 300	> 300	–	86 ± 7.3	–	–
Cl.O=C(O)CC(C(=O)O)[C@@H]1CCN[C@H]1C(=O)O (relative stereo) [3l, trans-2-(2-Carboxypyrrolidin-3-yl)succinic Acid Hydrochloride]	23	2 ± 0.16	33 ± 1.1	> 1000	> 1000	> 1000	5.58 ± 0.03	6.4 ± 1.2	–	pIC50 KA (mean ± SEM, in brackets) [1]: 4.63 ± 0.02
COC(C(=O)O)[C@@H]1CCN[C@H]1C(=O)O.Cl (relative stereo) [3j-d1, trans-3-(Carboxy(methoxy)methyl)pyrrolidine-2-carboxylic Acid Hydrochloride]	>100	> 100	–	–	~300	> 1000	–	–	–	Ki [3]: > 100 µM; Ki [4]: 82 ± 11.2 µM; IC50 [5]: > 1000 µM
Cc1onc(O)c1CC(N)C(=O)O (stereo not drawn) [AMPA, α-amino-3-hydroxy-5-methyl-4-isoxazolepropionic acid, reference compound]	–	–	–	–	–	–	–	–	–	GluK1/GluK3 [4]: 0.03; GluK2/GluK3 [4]: >23
CCCC(C(=O)O)[C@@H]1CCN[C@H]1C(=O)O.Cl (relative stereo) [3e, trans-3-(1-Carboxybutyl)pyrrolidine-2-carboxylic Acid Hydrochloride]	>100	–	–	–	–	–	–	–	–	–
Cl.O=C(O)C(Cc1ccccc1)[C@@H]1CCN[C@H]1C(=O)O (relative stereo) [3g, trans-3-(1-Carboxy-2-phenylethyl)pyrrolidine-2-carboxylic Acid Hydrochloride]	71	46 ± 2.2	67 ± 4.6	–	20	–	–	5.4 ± 0.42	9	pIC50 KA (mean ± SEM, in brackets) [1]: 4.15 ± 0.04; IC50 [5, 14]: 34 µM; selectivity for EAAT1 and EAAT2 over EAAT3 ([5]; from IC50 values): 10 fold; IC50 ([5]; pIC50 EAAT1 (mean ± SEM, in brackets), HEK293 cells, [3H]-D-Asp uptake): 34.7 µM
CN[C@H](CC(=O)O)C(=O)O [NMDA, N-methyl-D-aspartate, reference compound]	–	–	–	–	–	–	–	–	–	IC50 [10]: > 100 µM; IC50 KA [11]: >100 µM; Ki [12]: 35 µM
